In ChEMBL document CHEMBL1201862, “PubChem BioAssay data set” (2004):
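The compound was tested at five concentrations on cells cultured in 96-well plates, with a 48-hour exposure period. Abbreviation: GI50, concentration required for 50% inhibition of growth.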 Calls of active or inactive are those of the source. Cut-off read from the data, not from the text of the source: active = GI50 up to about 1.1 µM and inactive = higher. Where a SMILES comes first, the peptide text is derived from it. The star is where a group is joined. Fmoc = O=C(OCC1c2ccccc2-c2ccccc21)*; OtBu = CC(C)(C)O*

How the values were obtained:
Experiment in all cases: NCI-60 cell line screen, 48 h
[1] = tested on: UACC-62
[2] = tested on: K562
[3] = tested on: OVCAR-8
[4] = tested on: PC-3
[5] = tested on: 786-0
[6] = tested on: NCI/ADR-RES
[7] = tested on: HCT-15
[8] = tested on: OVCAR-3
[9] = tested on: SNB-19
[10] = tested on: MDA-MB-435
[11] = tested on: Hs-578T
[12] = tested on: SF-295
[13] = tested on: BT-549
[14] = tested on: MDA-N
[15] = tested on: DMS-273
[16] = tested on: SNB-78
[17] = tested on: XF498
[18] = tested on: DLD-1
[19] = tested on: KM-20L2
[20] = tested on: HOP-18

Row | Structure (SMILES) | GI50 [1] | GI50 [2] | GI50 [3] | GI50 [4] | GI50 [5] | GI50 [6] | GI50 [7] [µM] | GI50 [8] | GI50 [9] | GI50 [10] | GI50 [11] | GI50 [12] | GI50 [13] | GI50 [14] | GI50 [15] | GI50 [16] | GI50 [17] | GI50 [18] | GI50 [19] | GI50 [20]
1 | O=c1[nH]cnc2sc(=S)c3c(c12)CCC3 | 40.9 µM (inactive) | 12.2 µM (inactive) | 38.4 µM (inactive) | 37 µM (inactive) | 15.5 µM (inactive) | 36.9 µM (inactive) | 29 | 18.4 µM (inactive) | 48.5 µM (inactive) | 81.8 µM (inactive) | 48.5 µM (inactive) | > 100 µM (inactive) |  |  |  |  |  |  |  | 
2 | CCN1CCCCC(=N\O)/C(=N/O)CCCC1 | > 100 µM (inactive) |  | > 100 µM (inactive) | > 100 µM (inactive) | > 100 µM (inactive) | > 100 µM (inactive) | > 100 | > 100 µM (inactive) | > 100 µM (inactive) | > 100 µM (inactive) | > 100 µM (inactive) | > 100 µM (inactive) | > 100 µM (inactive) | > 100 µM (inactive) |  |  |  |  |  | 
3 | O=[S@@]1Nc2ccc(Br)cc2S1 | 1.07 µM (active) | 0.766 µM (active) |  |  | > 100 µM (inactive) |  |  | 31.2 µM (inactive) | 2.77 µM (inactive) |  |  | 40 µM (inactive) |  |  | 1.73 µM (inactive) | > 100 µM (inactive) | > 100 µM (inactive) | 6.08 µM (inactive) | 0.294 µM (active) | 
4 | OCC1C2C=CC(O2)[C@H]1CO (stereo partly specified) | > 100 µM (inactive) |  | > 100 µM (inactive) |  | > 100 µM (inactive) |  | > 100 | > 100 µM (inactive) | > 100 µM (inactive) |  |  | > 100 µM (inactive) |  |  | > 100 µM (inactive) | > 100 µM (inactive) |  | > 100 µM (inactive) | > 100 µM (inactive) | > 100 µM (inactive)
5 | COc1ccc(C(OCC2OC(n3cc(C)c(=O)[nH]c3=O)CC2n2cc(Cn3cc(Br)c(=O)[nH]c3=O)nn2)(c2ccccc2)c2ccccc2)cc1 (stereo unspecified) | > 100 µM (inactive) |  | > 100 µM (inactive) | 32.5 µM (inactive) | > 100 µM (inactive) | > 100 µM (inactive) | > 100 | > 100 µM (inactive) | > 100 µM (inactive) | 6.55 µM (inactive) | > 100 µM (inactive) | > 100 µM (inactive) | > 100 µM (inactive) | 21 µM (inactive) |  |  |  |  |  | 
6 | N#C[C@@H](c1nc2ccccc2s1)c1ncccc1[N+](=O)[O-] | 3.21 µM (inactive) | > 10 µM (inactive) | 9.06 µM (inactive) | 5.16 µM (inactive) | 6.19 µM (inactive) | 6.46 µM (inactive) | 7.13 | 2.48 µM (inactive) | 3.94 µM (inactive) | 13.4 µM (inactive) | 5.55 µM (inactive) | 4.1 µM (inactive) | 5 µM (inactive) | 7.46 µM (inactive) |  |  |  |  |  | 
7 | COc1cc(C2C3=C(COC3=O)Oc3cc4c(cc32)OCO4)cc(OC)c1O (stereo unspecified) | < 0.01 µM (active) | < 0.01 µM (active) | < 0.0152 µM (active) | < 0.01 µM (active) | < 0.0152 µM (active) | < 0.01 µM (active) | 0.0126 | 0.0127 µM (active) | < 0.0123 µM (active) | < 0.01 µM (active) | 0.0119 µM (active) | < 0.01 µM (active) | 39.8 µM (inactive) | < 0.01 µM (active) |  |  |  |  |  | 
8 | O=C(O)c1ccc(Nc2nc3ccccc3nc2-c2cccs2)cc1 | 65.5 µM (inactive) | 45.5 µM (inactive) | 54.2 µM (inactive) | > 100 µM (inactive) | 71.9 µM (inactive) | 39.1 µM (inactive) | 68.7 | > 100 µM (inactive) |  | > 100 µM (inactive) | 50.7 µM (inactive) | > 100 µM (inactive) | 32.1 µM (inactive) | > 100 µM (inactive) |  |  |  |  |  | 
9 | CC(=O)N(C(=O)CC(=O)N1N=C(C)C(/N=N/c2cccc([N+](=O)[O-])c2)C1=O)c1ccc(Cl)cc1 (stereo unspecified) | > 10 µM (inactive) | > 10 µM (inactive) | > 10 µM (inactive) | > 10 µM (inactive) | > 10 µM (inactive) | > 10 µM (inactive) | > 10 | > 10 µM (inactive) | > 10 µM (inactive) | > 10 µM (inactive) | > 10 µM (inactive) | > 10 µM (inactive) | > 10 µM (inactive) | > 10 µM (inactive) |  |  |  |  |  | 
10 | CCOC(=O)c1cccc(NC(=O)CBr)c1 | 1.42 µM (inactive) | 0.362 µM (active) | 1.11 µM (active) | 1.55 µM (inactive) | 0.22 µM (active) | 2.04 µM (inactive) | 1.28 | 1.39 µM (inactive) | 4.4 µM (inactive) | 1.1 µM (active) | 2.72 µM (inactive) | 4.36 µM (inactive) | 1.91 µM (inactive) | 1.4 µM (inactive) |  |  |  |  |  | 
11 | CCOC(=O)c1nc2ccc(OC)cc2c2c1Cc1ccccc1-2 | 90.2 µM (inactive) | > 100 µM (inactive) | > 100 µM (inactive) |  |  |  | > 100 | > 100 µM (inactive) | > 100 µM (inactive) |  |  | > 100 µM (inactive) |  |  | > 100 µM (inactive) | > 100 µM (inactive) |  | > 100 µM (inactive) | > 100 µM (inactive) | 
12 | COC(=O)/C=C\n1nc(Br)c(=O)[nH]c1=O |  | > 100 µM (inactive) | > 100 µM (inactive) | > 100 µM (inactive) |  | > 100 µM (inactive) | 85.7 | > 100 µM (inactive) | > 100 µM (inactive) | > 100 µM (inactive) | > 100 µM (inactive) |  | > 100 µM (inactive) | > 100 µM (inactive) |  |  |  |  |  | 
13 | CN(C(=O)C12C3C4C1C1C2C3C41C(=O)C(C)(C)C)C(C)(C)C (stereo unspecified) | > 100 µM (inactive) | > 100 µM (inactive) | > 100 µM (inactive) |  | > 100 µM (inactive) |  |  | > 100 µM (inactive) | > 100 µM (inactive) |  |  | > 100 µM (inactive) |  |  | > 100 µM (inactive) | > 100 µM (inactive) | > 100 µM (inactive) | > 100 µM (inactive) | > 100 µM (inactive) | 
14 | O=S(O)c1cc(Cl)cc(Cl)c1OCc1ccccc1 | > 100 µM (inactive) | > 100 µM (inactive) |  |  |  |  |  | > 100 µM (inactive) | > 100 µM (inactive) |  |  |  |  |  |  | > 100 µM (inactive) | > 100 µM (inactive) | > 100 µM (inactive) |  | 
15 | COc1ccc(CNc2nc(NCc3ccc(OC)c(OC)c3)nc(NC3CCCCC3)n2)cc1 | 2.3 µM (inactive) | 1.24 µM (inactive) | 7.41 µM (inactive) | 3.77 µM (inactive) | 5.64 µM (inactive) | 2.55 µM (inactive) | 0.731 | 5.38 µM (inactive) | > 100 µM (inactive) | 0.531 µM (active) | 2.49 µM (inactive) | 2.04 µM (inactive) | 4.57 µM (inactive) |  |  |  |  |  |  | 
16 | O=S(O)c1cc(Cl)cc(Cl)c1O | > 100 µM (inactive) | > 100 µM (inactive) |  |  |  |  |  | > 100 µM (inactive) | > 100 µM (inactive) |  |  |  |  |  |  | > 100 µM (inactive) | > 100 µM (inactive) | > 100 µM (inactive) |  | 
17 | CC(C)C(NC(=O)OCC1c2ccccc2-c2ccccc21)C(=O)NC(CCC(=O)OC(C)(C)C)C(=O)OC(C)(C)C (stereo unspecified) (Fmoc-Val-Glu(OtBu)-OtBu; configuration not given here) | > 76.9 µM (inactive) | > 20.5 µM (inactive) | 23.9 µM (inactive) | 3.99 µM (inactive) | > 100 µM (inactive) | 27 µM (inactive) | > 100 | > 100 µM (inactive) | > 100 µM (inactive) | > 100 µM (inactive) | > 100 µM (inactive) | 17.2 µM (inactive) | > 100 µM (inactive) | > 100 µM (inactive) |  |  |  |  |  | 
18 | O=C(Nc1ccc(F)cc1)C(=O)C(C(=O)c1ccccc1F)C1OC(=O)c2ccccc21 (stereo unspecified) | 39.9 µM (inactive) | 34.7 µM (inactive) | 43 µM (inactive) |  |  |  | 23.6 |  | 39.4 µM (inactive) |  |  | 68.5 µM (inactive) |  |  | 43.3 µM (inactive) | 44.6 µM (inactive) | 50.8 µM (inactive) | 76.4 µM (inactive) | 86.3 µM (inactive) | 
19 | NC(CCOCCP(=O)(O)CCOCCC(N)C(=O)O)C(=O)O (stereo unspecified) | > 100 µM (inactive) | > 100 µM (inactive) | > 100 µM (inactive) |  |  | > 100 µM (inactive) | > 100 | > 100 µM (inactive) | > 100 µM (inactive) | > 100 µM (inactive) | > 100 µM (inactive) | > 100 µM (inactive) |  |  |  |  |  |  |  | 
20 | N#CC(C#N)C1CN2CCC1CC2 (stereo unspecified) | > 100 µM (inactive) | > 100 µM (inactive) | 79.6 µM (inactive) | > 100 µM (inactive) | > 100 µM (inactive) | > 100 µM (inactive) | > 100 | > 100 µM (inactive) | > 100 µM (inactive) | > 100 µM (inactive) | > 100 µM (inactive) | > 100 µM (inactive) |  | > 100 µM (inactive) |  |  |  |  |  | 
21 | COc1cc(S(=O)(=O)Nc2ccc(-c3csc(N4C(=O)C(C)SC4c4cccc(Oc5ccccc5)c4)n3)cc2)ccc1Cl (stereo unspecified) | 28.4 µM (inactive) | 36.5 µM (inactive) | 37.5 µM (inactive) | 43.9 µM (inactive) |  | > 100 µM (inactive) | 36.9 | 43.6 µM (inactive) | 86.9 µM (inactive) | 32.6 µM (inactive) | 34 µM (inactive) | 46.2 µM (inactive) | 26.7 µM (inactive) | 27.7 µM (inactive) |  |  |  |  |  | 
22 | COc1cc(/C=C(\C)[N+](=O)[O-])cc(OC)c1 | 14.6 µM (inactive) | 2.69 µM (inactive) | 15.6 µM (inactive) | 20.1 µM (inactive) | 4.59 µM (inactive) | 20.2 µM (inactive) | 12.6 | 17.8 µM (inactive) | > 40.9 µM (inactive) | 14.9 µM (inactive) | 26.9 µM (inactive) | 25.8 µM (inactive) | 19.2 µM (inactive) | 13 µM (inactive) |  |  |  |  |  | 
